Experimental findings from patent US20250206758A1, “SUBSTITUTED BRIDGED RING INHIBITOR, PREPARATION METHOD THEREFOR AND APPLICATION THEREOF” (SUZHOU ZELGEN BIOPHARMACEUTICALS CO., LTD., priority 2022, published 2025) are described below.

One experiment has as its system GP2D. Kind of experiment: Cell proliferation inhibition, GP2D (CellTiter-Glo 3D, 7 days). The class given is cell-based. Conditions: 168 h. How it is done:
(§1) • (a) Resuscitating cells in T75 cell culture flask: • (b) When the cell confluence reaches 80-90%, subculturing the cells.
(§2) The diluted test compound was added to a 384-well cell culture plate with a nanoliter pipetting system, and duplicate wells were set up. An equal volume of culture medium was added to the positive control group; and an equal volume of DMSO was added to the negative control group, then centrifugation was conducted at 1000 rpm for 1 min at room temperature.
(§3) Cells were inoculated into a) 384-well culture plate, with an equal volume of cells added to the negative control group, and only an equal volume of culture medium added to the positive control group. The plate was centrifuged at 1000 rpm for 1 min at room temperature, and the final DMSO concentration of the compound was 0.5% at last. The plate was placed in a 37° C., 5% CO2 constant temperature incubator for 7 days.
(§4) 20 μL/well of CellTiter-Glo® 3D to b) was added to 384-well cell culture plate, and the plate was shook at 320 rpm for 20 min in the dark, and incubated at room temperature in the dark for 2 hrs.
(§5) The luminescence value was read using an Envision multi-functional microplate reader.
(§6) The inhibition rate (IR) of the test compound was calculated using the following formula: IR (%)=(1−(RLU compound−RLU blank control)/(RLU meidum control−RLU blank control))*100%. The inhibition rates of different concentrations of compounds were calculated in Excel, and then the inhibition curves were plotted and the related parameters (including the minimum inhibition rate, maximum inhibition rate and IC50) were calculated using GraphPad Prism software.

Another experiment deals with AsPC-1. As to the kind of experiment: Cell proliferation inhibition, AsPC-1 (CellTiter-Glo 3D, 7 days). Conditions: Homo sapiens, ASPC1, 168 h; AsPC-1, 7 days. The experiment is classed as cell-based. How it is done:
as §1, §2, §3, §4, §5, §6

For the compound `CCc1c(F)ccc2cc(O)cc(-c3ncc4c(N5CC6CCC(C5)N6)nc(OC[C@]56CCCN5C[C@]5(CC5(F)F)C6)nc4c3F)c12` [Example 17B], the values for the IC50 with GP2D and with AsPC-1 were 1.15 nM and 7.84 nM, respectively.

`C#Cc1c(F)ccc2cc(O)cc(-c3ncc4c(N5C[C@H]6CC[C@@H](C5)N6)nc(OC[C@]56CCCN5C[C@]5(CC5(F)F)C6)nc4c3F)c12` [Example 16B-2, 4-(4-((1R,5S)-3,8-diazabicyclo[3.2.1]octan-3-yl)-2-(((1R,7a′R)-2,2-difluorodihydro-1′H,3′H-spiro[cyclopropan-1,2′-pyrrolizin]-7a′(5′H)-yl)methoxy)-8-fluoropyridino[4,3-d]pyrimidin-7-yl)-5-ethynyl-6-fluoronaphthalen-2-ol]: the values for the concentration for half-maximal inhibition (IC50) in the experiment with GP2D and in the experiment on AsPC-1 were 1.55 nM and 9.22 nM, respectively.

Regarding `C#Cc1c(F)ccc2cc(O)cc(-c3ncc4c(N5C[C@H]6CC[C@@H](C5)N6)nc(OC[C@@]56CCC7(CC7)N5C[C@@H](F)C6)nc4c3F)c12` (relative stereo) [Example 12B, 4-(4-((1R,5S)-3,8-diazabicyclo[3.2.1]octan-3-yl)-8-fluoro-2-(((cis)-6′-fluorotetrahydrospiro[cyclopropan-1,3′-pyrrolizin]-7a′(5′H)-yl)methoxy)pyridino[4,3-d]pyrimidin-7-yl)-5-ethynyl-6-fluoronaphthalen-2-ol], the half-maximal inhibitory concentration (IC50) in the experiment with GP2D was 29.6 nM; in the experiment on AsPC-1, 390 nM.

As for `Nc1c(Cl)cc(Cl)c(F)c1-c1ncc2c(N3C[C@H]4CC[C@@H](C3)N4)nc(OC[C@@]34CCCN3C[C@@]3(CC3(F)F)C4)nc2c1F` [Example 25, 2-(4-((1R,5S)-3,8-diazabicyclo[3.2.1]octan-3-yl)-2-(((1S,7a'S)-2,2-difluorodihydro-1′H,3′H-spiro[cyclopropan-1,2′-pyrrolizin]-7a′(5′H)-yl)methoxy)-8-fluoropyridino[4,3-d]pyrimidin-7-yl)-4,6-dichloro-3-fluoroaniline], the IC50 in the experiment with GP2D is above 100 nM; in the experiment with AsPC-1 it was above 1000 nM.

Turning to `Nc1cncc(-c2ncc3c(N4C[C@H]5CC[C@@H](C4)N5)nc(OC[C@@]45CCCN4C[C@@]4(CC4(F)F)C5)nc3c2F)c1C(F)(F)F` [Example 53, 5-(4-((1R,5S)-3,8-diazabicyclo[3.2.1]octan-3-yl)-2-(((1S,7a'S)-2,2-difluorodihydro-1′H,3′H-spiro[cyclopropan-1,2′-pyrrolizin]-7a′(5′H)-yl)methoxy)-8-fluoropyridino[4,3-d]pyrimidin-7-yl)-4-(trifluoromethyl)pyridin-3-amine], the IC50 came to 60 nM in the experiment on GP2D and 896 nM in the experiment with AsPC-1.

In the case of `Cc1nc(N)cc(-c2ncc3c(N4C[C@H]5CC[C@@H](C4)N5)nc(OC[C@@]45CCCN4C[C@@]4(CC4(F)F)C5)nc3c2F)c1C(F)(F)F` [Example 55, 4-(4-((1R,5S)-3,8-diazabicyclo[3.2.1]octan-3-yl)-2-(((1S,7a'S)-2,2-difluorodihydro-1′H,3′H-spiro[cyclopropan-1,2′-pyrrolizin]-7a′(5′H)-yl)methoxy)-8-fluoropyridino[4,3-d]pyrimidin-7-yl)-6-methyl-5-(trifluoromethyl)pyridin-2-amine], the IC50 worked out at 6.5 nM with GP2D and 56.7 nM in the experiment with AsPC-1.

Take `C#Cc1c(F)ccc2cc(O)cc(-c3ncc4c(N5C[C@H]6CC[C@@H](C5)N6)nc(OC[C@@]56C[C@@H](F)CN5C[C@]5(CC5(F)F)C6)nc4c3F)c12` [Example 15D, 4-(4-((1R,5S)-3,8-diazabicyclo[3.2.1]octan-3-yl)-8-fluoro-2-(((1R,6′R,7a′R)-2,2,6′-trifluorodihydro-1′H,3′H-spiro[cyclopropan-1,2′-pyrrolizin]-7a′(5′H)-yl)methoxy)pyridino[4,3-d]pyrimidin-7-yl)-5-ethynyl-6-fluoronaphthalen-2-ol]: the IC50 was determined as 44.5 nM with GP2D and 177 nM with AsPC-1.

`CCc1c(F)ccc2cc(O)cc(-c3ncc4c(N5CC6CCC(C5)N6)nc(OC[C@@]56CCCN5C[C@@]5(CC5(F)F)C6)nc4c3F)c12` [Example 17A]: the values for the IC50 with GP2D and in the experiment on AsPC-1 were 0.26 nM and 1.07 nM, respectively.

As for `C#Cc1c(F)ccc2cc(O)cc(-c3ncc4c(N5CCCC(C)(N)C5)nc(OC[C@@]56CCCN5C[C@@]5(CC5(F)F)C6)nc4c3F)c12` (stereo partly drawn) [Example 29, 4-(4-(3-amino-3-methylpiperidin-1-yl)-2-(((1S,7a'S)-2,2-difluorodihydro-1′H,3′H-spiro[cyclopropan-1,2′-pyrrolizin]-7a′(5′H)-yl)methoxy)-8-fluoropyridino[4,3-d]pyrimidin-7-yl)-5-ethynyl-6-fluoronaphthalen-2-ol], the values for the IC50 with GP2D and with AsPC-1 were 17.7 nM and 180 nM, respectively.

For the compound `C#Cc1c(F)ccc2cc(O)cc(-c3ncc4c(N5C[C@H]6CC[C@@H](C5)N6)nc(OC[C@@]56C[C@@H](F)CN5C[C@@]5(CC5(F)F)C6)nc4c3F)c12` [Example 15C, 4-(4-((1R,5S)-3,8-diazabicyclo[3.2.1]octan-3-yl)-8-fluoro-2-(((1S,6′R,7a′R)-2,2,6′-trifluorodihydro-1′H,3′H-spiro[cyclopropan-1,2′-pyrrolizin]-7a′(5′H)-yl)methoxy)pyridino[4,3-d]pyrimidin-7-yl)-5-ethynyl-6-fluoronaphthalen-2-ol], the IC50 in the experiment with GP2D turned out to be 12.1 nM; in the experiment on AsPC-1, 60.6 nM.

For `Nc1cnc(C(F)(F)F)c(-c2ncc3c(N4C[C@H]5CC[C@@H](C4)N5)nc(OC[C@@]45CCCN4C[C@@]4(CC4(F)F)C5)nc3c2F)c1` [Example 52, 5-(4-((1R,5S)-3,8-diazabicyclo[3.2.1]octan-3-yl)-2-(((1S,7a'S)-2,2-difluorodihydro-1′H,3′H-spiro[cyclopropan-1,2′-pyrrolizin]-7a′(5′H)-yl)methoxy)-8-fluoropyridino[4,3-d]pyrimidin-7-yl)-6-(trifluoromethyl)pyridin-3-amine], the IC50 in the experiment with GP2D is above 100 nM; in the experiment with AsPC-1 it was above 1000 nM.

Regarding `N#Cc1c(-c2ncc3c(N4C[C@H]5CC[C@@H](C4)N5)nc(OC[C@@]45CCCN4C[C@@]4(CC4(F)F)C5)nc3c2F)cc(N)cc1C(F)(F)F` [Example 50, 2-(4-((1R,5S)-3,8-diazabicyclo[3.2.1]octan-3-yl)-2-(((1S,7a'S)-2,2-difluorodihydro-1′H,3′H-spiro[cyclopropan-1,2′-pyrrolizin]-7a′(5′H)-yl)methoxy)-8-fluoropyridino[4,3-d]pyrimidin-7-yl)-4-amino-6-(trifluoromethyl)benzonitrile], the IC50 is above 100 nM in the experiment on GP2D and above 1000 nM in the experiment on AsPC-1.

As to `COc1c(-c2cc(N)cc(Cl)c2C(F)(F)F)ncc2c(N3C[C@H]4CC[C@@H](C3)N4)nc(OC[C@@]34CCCN3C[C@@]3(CC3(F)F)C4)nc12` [Example 31, 3-(4-((1R,5S)-3,8-diazabicyclo[3.2.1]octan-3-yl)-2-(((1S,7a'S)-2,2-difluorodihydro-1′H,3′H-spiro[cyclopropan-1,2′-pyrrolizin]-7a′(5′H)-yl)methoxy)-8-methoxypyridino[4,3-d]pyrimidin-7-yl)-5-chloro-4-(trifluoromethyl)aniline], the IC50 in the experiment with GP2D stood at 24.3 nM; in the experiment on AsPC-1 it was 259 nM.

For the compound `Cc1c(F)cc2[nH]ncc2c1-c1ncc2c(N3C[C@H]4CC[C@@H](C3)N4)nc(OC[C@@]34CCCN3C[C@@]3(CC3(F)F)C4)nc2c1F` [Example 22, (1S,7a'S)-7a′-(((4-((1R,5S)-3,8-diazabicyclo[3.2.1]octan-3-yl)-8-fluoro-7-(6-fluoro-5-methyl-1H-indazol-4-yl)pyridino[4,3-d]pyrimidin-2-yl)oxy)methyl)-2,2-difluorodihydro-1′H,3′H-spiro[cyclopropan-1,2′-pyrrolizin]], the IC50 was above 100 nM in the experiment with GP2D and above 1000 nM in the experiment with AsPC-1.

Regarding `Nc1cc(Cl)c(F)c(-c2ncc3c(N4C[C@H]5CC[C@@H](C4)N5)nc(OC[C@@]45CCCN4C[C@@]4(CC4(F)F)C5)nc3c2F)c1` [Example 46, 3-(4-((1R,5S)-3,8-diazabicyclo[3.2.1]octan-3-yl)-2-(((1S,7a'S)-2,2-difluorodihydro-1′H,3′H-spiro[cyclopropan-1,2′-pyrrolizin]-7a′(5′H)-yl)methoxy)-8-fluoropyridino[4,3-d]pyrimidin-7-yl)-5-chloro-4-fluoroaniline], the half-inhibitory concentration (IC50) was above 100 nM in the experiment with GP2D and above 1000 nM in the experiment on AsPC-1.

In the case of `C#Cc1c(F)ccc2cc(O)cc(-c3ncc4c(N5C[C@H]6CC[C@@H](C5)N6)nc(OC[C@]56C[C@@H](F)CN5CC5(CC5)C6)nc4c3F)c12` [Example 10A, 4-(4-((1R,5S)-3,8-diazabicyclo[3.2.1]octan-3-yl)-8-fluoro-2-(((6′R,7a'S)-6′-fluorodihydro-1′H,3′H-spiro[cyclopropan-1,2′-pyrrolizin]-7a′(5′H)-yl)methoxy)pyridino[4,3-d]pyrimidin-7-yl)-5-ethynyl-6-fluoronaphthalen-2-ol], the half-maximal inhibitory concentration (IC50) with GP2D stood at 1.07 nM; in the experiment on AsPC-1 it was 23.5 nM.

Consider `C#Cc1c(F)ccc2cc(O)cc(-c3ncc4c(N5C[C@H]6CC[C@@H](C5)N6)nc(OC[C@@]56C[C@H](F)CN5C[C@@]5(CC5(F)F)C6)nc4c3F)c12` [Example 15G, 4-(4-((1R,5S)-3,8-diazabicyclo[3.2.1]octan-3-yl)-8-fluoro-2-(((1S,6'S,7a′R)-2,2,6′-trifluorodihydro-1′H,3′H-spiro[cyclopropan-1,2′-pyrrolizin]-7a′(5′H)-yl)methoxy)pyridino[4,3-d]pyrimidin-7-yl)-5-ethynyl-6-fluoronaphthalen-2-ol], for which the values for the IC50 in the experiment on GP2D and in the experiment with AsPC-1 were 39.1 nM and 329 nM, respectively.
